Measured values published in ChEMBL document CHEMBL3120058, “Integrated strategies for identifying leads that target the NS3 helicase of the hepatitis C virus” (J Med Chem, 2014).

Columns and labels:
[1] = Inhibition of HCV H genotype 1a N-terminal hexa-histidine-tagged NS3 helicase expressed in Escherichia coli BL21(DE3) using DNA oligonucleotide duplex as substrate after 1 hr by unwinding assay; parameters: species or system Hepatitis C virus (isolate H)
[2] = Binding affinity to HCV H genotype 1a N-terminal hexa-histidine-tagged NS3 helicase expressed in Escherichia coli BL21(DE3) assessed as resonance peak2 by STD NMR spectroscopic analysis; parameters: species or system Hepatitis C virus (isolate H)
[3] = Binding affinity to HCV H genotype 1a N-terminal hexa-histidine-tagged NS3 helicase expressed in Escherichia coli BL21(DE3) assessed as resonance peak1 by STD NMR spectroscopic analysis; parameters: species or system Hepatitis C virus (isolate H)
[4] = Binding affinity to HCV H genotype 1a N-terminal hexa-histidine-tagged NS3 helicase expressed in Escherichia coli BL21(DE3) at pH 6.5 by circular dichroism assay; parameters: species or system Hepatitis C virus (isolate H)
[5] = Binding affinity to HCV H genotype 1a N-terminal hexa-histidine-tagged NS3 helicase expressed in Escherichia coli BL21(DE3) in ITC/NMR buffer at pH 7.5 by circular dichroism assay; parameters: species or system Hepatitis C virus (isolate H)
[6] = Binding affinity to HCV H genotype 1a N-terminal hexa-histidine-tagged NS3 helicase expressed in Escherichia coli BL21(DE3) by isothermal titration calorimetry; parameters: species or system Hepatitis C virus (isolate H)
[7] = Selectivity ratio for HCV H genotype 1a N-terminal hexa-histidine-tagged NS3 helicase over human RNA helicase A

| SMILES | IC50 [1] [µM] | further results |
| --- | --- | --- |
| COc1ccc([N+](=O)[O-])cc1Cn1cc(CC(=O)O)c2ccccc21 | 14 |  |
| Nc1cc(N)cc(-c2ccc3c(CC(=O)O)cn(Cc4cccc(Cl)c4)c3c2)c1 | 35 |  |
| COc1ccc([N+](=O)[O-])cc1Cn1cc(CC(=O)O)c2ccc(-c3cc(N)cc(N)c3)cc21 | 3 | Kd [2]: 28 µM; Kd [3]: 32 µM; Kd [4]: 3.5 µM; Kd [5]: 41 µM; Kd [6]: 33 µM; Selectivity ratio [7]: 36 |
| O=C(O)Cc1cn(Cc2cccc(Cl)c2)c2cc(-c3ccccc3)ccc12 | 140 |  |
| Nc1cc(-c2ccc3c(CC(=O)O)cn(Cc4cccc(Cl)c4)c3c2)cc([N+](=O)[O-])c1 | 140 |  |
| O=C(O)Cc1cn(Cc2cccc(Cl)c2)c2cc(Cl)ccc12 | 94 |  |
| O=C(O)Cc1cn(-c2ccc([N+](=O)[O-])cc2C(F)(F)F)c2ccc(Br)cc12 | 140 |  |
| O=C(O)Cc1cn(Cc2cccc(Cl)c2)c2cc(Br)ccc12 | 94 |  |
| O=C(O)Cc1c[nH]c2ccccc12 [INDOLE-3-ACETIC ACID] | 500 |  |

The next lines start with results.

| IC50 [1] [µM] | SMILES | further results |
| --- | --- | --- |
| 85 | Cc1cccc(Cn2cc(CC(=O)O)c3ccccc32)c1 |  |
| > 500 | Nc1cccc(Cn2cc(CC(=O)O)c3ccccc32)c1 |  |
| 150 | O=C(O)Cc1cn(Cc2cccc(O)c2)c2ccccc12 |  |
| 46 | O=C(O)Cc1cn(Cc2cccc([N+](=O)[O-])c2)c2ccccc12 |  |
| 52 | O=C(O)Cc1cn(Cc2cccc(I)c2)c2ccccc12 |  |
| 31 | C#Cc1cccc(Cn2cc(CC(=O)O)c3ccccc32)c1 |  |
| 71 | O=C(O)Cc1cn(Cc2cccc(Cl)c2)c2ccccc12 |  |
| 240 | O=C(O)Cc1cn(Cc2ccccc2)c2ccccc12 |  |
